The text below walks through data of PMC9250238 (BMC Complementary Medicine and Therapies, 2022).

Where two headings read alike, the source gives them in different places.

Assay [1] deals with T1, α-amylase (porcine pancreas) (Sus scrofa, UniProt P00690).
T1 sequence (P00690 16-511): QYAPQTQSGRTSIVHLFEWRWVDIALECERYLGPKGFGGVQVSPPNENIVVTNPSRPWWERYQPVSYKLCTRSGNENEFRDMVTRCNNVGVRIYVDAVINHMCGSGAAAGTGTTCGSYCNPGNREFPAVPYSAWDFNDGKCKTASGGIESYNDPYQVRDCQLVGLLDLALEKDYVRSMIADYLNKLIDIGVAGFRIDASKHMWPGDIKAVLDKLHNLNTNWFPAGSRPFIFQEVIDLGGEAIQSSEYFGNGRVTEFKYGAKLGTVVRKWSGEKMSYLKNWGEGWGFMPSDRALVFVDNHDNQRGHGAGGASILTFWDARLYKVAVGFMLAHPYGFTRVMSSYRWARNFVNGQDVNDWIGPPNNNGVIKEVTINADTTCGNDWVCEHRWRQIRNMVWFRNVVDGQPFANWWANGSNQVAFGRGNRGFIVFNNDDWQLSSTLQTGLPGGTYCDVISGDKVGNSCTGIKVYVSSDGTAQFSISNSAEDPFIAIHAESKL
Description: Kinetic test for α-amylase (Lineweaver–Burk). Format: biochemical. Set-up: purchased Sigma–Aldrich; host or cells: porcine pancreas. Conditions: Lineweaver–Burk plots. How it is done: (§1) Changes in α-amylase activities were quantitatively analysed via a method based on starch-iodine colorimetric detection. […] A mixture of 40 μL of starch solution and 40 μL of selected compounds was maintained at 37 °C for 10 min, and 80 μL α-amylase (5 U/mL) was added to start the reaction. After 30 min at 37 °C, terminations were achieved using 40 μL of 1 M HCl.

Assay [2] has as its target T2, α-glucosidase (Saccharomyces cerevisiae) (Saccharomyces cerevisiae, UniProt P53341). Description: Combined inhibition of acarbose and selected compounds against α-glucosidase (CompuSyn CI). In kind it is biochemical. Set-up: purchased Sigma–Aldrich. The conditions noted are these: for Type of interaction with acarbose against α-glucosidase: CI >1.1 antagonistic, 0.9-1.1 additive, <0.9 synergistic; for CI values against α-glucosidase: combination with acarbose, over tested concentrations. From the text: (§2) A combination index (CI) was employed to evaluate the impacts of binary inhibitors on α-glucosidase and α-amylase. […] When the CI values were above 1.1, between 0.9 and 1.1, and below 0.9, the effects were defined as antagonistic, additive, and synergistic.

The target in assay [3] is T2, α-glucosidase (Saccharomyces cerevisiae). Description: biochemical.
The target of assay [4] is T1, α-amylase (porcine pancreas). The experiment in a line: Combined inhibition of acarbose and selected flavonoids against α-amylase (CompuSyn CI). The conditions noted are these: CI >1.1 antagonistic, 0.9-1.1 additive, <0.9 synergistic. Set-up: purchased Sigma–Aldrich; host or cells: porcine pancreas. In kind it is biochemical. How it is done:
as §1, §2

Assay [5] shares this target. The experiment in a line: α-Amylase inhibition assay (starch-iodine). Conditions: for IC50 against α-amylase (result in words): in the test concentration range.
The target in assay [6] is T2, α-glucosidase (Saccharomyces cerevisiae). Description: Kinetic test for α-glucosidase (Lineweaver–Burk).
The target is the same in assay [7]. Conditions: read-out: IC50 against α-glucosidase; in vitro, pNPG substrate, 37 °C, pH 6.8.

As usually defined, the Ki is a measure of affinity in units of concentration, obtained from inhibition or displacement. What is called IC50 is the point on the concentration scale where inhibition reaches its midpoint.

T2 sequence (P53341 whole entry): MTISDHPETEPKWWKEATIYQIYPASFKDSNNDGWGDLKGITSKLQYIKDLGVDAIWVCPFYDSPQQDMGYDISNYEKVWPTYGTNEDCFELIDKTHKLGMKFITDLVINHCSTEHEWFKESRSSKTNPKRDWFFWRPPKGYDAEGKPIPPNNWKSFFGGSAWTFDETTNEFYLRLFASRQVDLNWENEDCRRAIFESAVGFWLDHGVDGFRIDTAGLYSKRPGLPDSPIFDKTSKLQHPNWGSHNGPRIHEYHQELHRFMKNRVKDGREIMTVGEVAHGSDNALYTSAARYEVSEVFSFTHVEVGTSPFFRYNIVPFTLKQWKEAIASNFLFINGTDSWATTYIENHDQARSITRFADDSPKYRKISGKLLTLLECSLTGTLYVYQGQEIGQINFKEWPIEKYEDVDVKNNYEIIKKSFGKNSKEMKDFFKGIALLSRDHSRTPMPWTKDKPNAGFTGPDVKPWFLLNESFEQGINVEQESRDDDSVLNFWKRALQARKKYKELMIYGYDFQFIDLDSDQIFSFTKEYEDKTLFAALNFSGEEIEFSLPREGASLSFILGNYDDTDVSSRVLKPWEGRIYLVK

Turning to `O=c1c(Cc2ccc(O)cc2)coc2cc(O)cc(O)c12` [Compound 9, 5,7-dihydroxy-3-(4′-hydroxybenzyl) chromone], in assay [1], the affinity, expressed as Ki, was 8590 ± 1940 µM and the “Mode of inhibition (α-amylase)” value is “Mixed”. In assay [2], the “Type of interaction with acarbose against α-glucosidase” value (from here on “Type … against α-glucosidase”) is “synergism” and the “CI values against α-glucosidase” value is recorded as “below 0.9”. Moreover, the IC50 in assay [3] came out at 650 ± 10 µM. Besides, the “Type of interaction with acarbose against α-amylase” value (shortened to “Type … against α-amylase”) in assay [4] was “additive effects”. This compound came in with a half-maximal inhibitory concentration (IC50) in assay [5] of 2590 ± 50 µM. Besides, the inhibition constant Ki in assay [6] amounted to 54.4 ± 15.8 µM. Further, the “Mode of inhibition (α-glucosidase)” value in assay [6] (Lineweaver–Burk plots) was “Mixed”.

On to `CCO[C@@H](c1ccc(O)c(OC)c1)[C@H](O)CO` [Compound 22, erythro-7R,8S-7-O-ethylguaiacyl glycerol], for which, in assay [2], the “Type … against α-glucosidase” value is “synergism” and the “CI values against α-glucosidase” value is “below 0.9”. Further, in assay [3], 40 ± 4 µM corresponded to half-maximal inhibition (IC50). In addition, in assay [5], the “IC50 against α-amylase (result in words)” value was “did not yield 50% inhibition”. In addition, the affinity in assay [6], expressed as Ki, was 7 ± 1.97 µM. Besides, in assay [6] (Lineweaver–Burk plots), the “Mode of inhibition (α-glucosidase)” value is recorded as “Mixed”.

In turn, `O=C(/C=C/c1ccc(O)cc1)NCCc1ccc(O)cc1` [Compound 18, trans-N-p-coumaroyltyramine] had a 50% inhibitory concentration (IC50) in assay [3] of 1.99 ± 0.2 µM. In assay [6], this compound returned a Ki of 21.1 ± 12.2 µM. Besides, the “Mode of inhibition (α-glucosidase)” value in assay [6] (Lineweaver–Burk plots) is reported as “Uncompetitive”.

With “(2S)-4′-hydroxy-5,7-dimethoxy-8-methylflavan [Compound 6]”, the inhibition constant Ki in assay [1] is 27500 ± 3510 µM; in assay [6] (read-out: Ki (α-glucosidase), Lineweaver–Burk plots), 57.8 ± 1.67 µM. The “Mode of inhibition (α-amylase)” value in assay [1] was “Mixed”. The “Type … against α-glucosidase” value in assay [2] is “slight antagonism”. For the same compound, the “CI (combination index) against α-glucosidase” value in assay [2] (highest concentration pair (about IC50), acarbose 5 mM, No.6/No.8 0.5 mM, No.9/No.24 1 mM, No.22 50 μM) was determined as 1.12. In addition, the IC50 is 370 ± 20 µM in assay [7] and 6030 ± 270 µM in assay [5] (read-out: IC50 against α-amylase, in vitro, starch-iodine method, 37 °C). In assay [4], the “Type … against α-amylase” value was “additive effects”. The “Mode of inhibition (α-glucosidase)” value in assay [6] (Lineweaver–Burk plots) is “Mixed”.

Consider `Cc1c(Cl)c(O)cc(O)c1Cl` [Compound 24, 4,6-dichloro-5-methyl-benzene-1,3-diol], for which, in assay [2], the “Type … against α-glucosidase” value is “moderate additive effects”. The IC50 in assay [3] is 780 ± 30 µM. The “IC50 against α-amylase (result in words)” value in assay [5] is on record as “did not yield 50% inhibition”. Further, the Ki in assay [6] is 44 ± 0.88 µM. Further, the “Mode of inhibition (α-glucosidase)” value in assay [6] (Lineweaver–Burk plots) was “Mixed”.

`COc1cc(O)c2c(c1C)O[C@H](c1ccc(O)cc1)CC2` [Compound 5, (2S)-4′,5-Dihydroxy-7-methoxy-8-methylflavan] registered a half-maximal inhibitory concentration (IC50) in assay [3] of 240 ± 30 µM. The compound further registered a Ki in assay [6] of 39.9 ± 8.47 µM. Moreover, the “Mode of inhibition (α-glucosidase)” value in assay [6] (Lineweaver–Burk plots) is “noncompetitive inhibitor”.

Regarding `Cc1c(O)cc2c(c1O)C(=O)C(Cc1ccc(O)cc1)CO2` (centres unmarked) [Compound 8, 5,7-dihydroxy-6-methyl-3-(4′-hydroxybenzyl) chroman-4-one], in assay [1], the affinity, expressed as Ki, was 14100 ± 3530 µM and the “Mode of inhibition (α-amylase)” value is on record as “Mixed”. For the same compound, in assay [2], the “Type … against α-glucosidase” value is “synergism” and the “CI values against α-glucosidase” value is reported as “below 0.9”. Moreover, inhibition in assay [3] was half-maximal at 520 ± 10 µM (IC50). The “Type … against α-amylase” value in assay [4] is “additive effects”. This compound gave a half-inhibitory concentration (IC50) in assay [5] of 5990 ± 60 µM. Moreover, the affinity in assay [6], expressed as Ki, was 11.2 ± 0.99 µM. Also, in assay [6] (Lineweaver–Burk plots), the “Mode of inhibition (α-glucosidase)” value is listed as “Competitive”.
